The source made the active and inactive calls.
Experiments:
[1] = molecular target: Serine/threonine-protein phosphatase PP1-alpha catalytic subunit (Homo sapiens, UniProt P62136); assay: inhibition of protein phosphatase 1 activity – biochemical, fluorescence, dose response (AID 2403);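 note: phosphatase turnover of OMFP into fluorescent 3-O-methylfluorescein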
[2] = Trypanosoma cruzi growth suppression in host cells – NIH3T3 host cells, beta-gal luminescence, confirmation (AID 2044); assay type: functional, cell-based;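 note: intracellular parasites grown in NIH/3T3 mouse fibroblasts as host cells; luminescent beta-galactosidase reporter signal from transgenic T. cruzi replicating inside host cells; inhibitors lower the luminescence signal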
[3] = molecular target: Serine/threonine-protein phosphatase (Homo sapiens, UniProt Q9BPW0); assay: Counterscreen for inhibitors of PP1: fluorescence-based biochemical high throughput dose response assay to identify inhibitors of Protein Phosphatase 5 (PP5). [Related pubchem assays: 2034 (Summary (PP5 inhibitors)), 1987 (PP5 inhibitors in singlate), 2235 (PP1 inhibitors in singlate)]
Serine/threonine-protein phosphatase, sequence (Q9BPW0 whole entry): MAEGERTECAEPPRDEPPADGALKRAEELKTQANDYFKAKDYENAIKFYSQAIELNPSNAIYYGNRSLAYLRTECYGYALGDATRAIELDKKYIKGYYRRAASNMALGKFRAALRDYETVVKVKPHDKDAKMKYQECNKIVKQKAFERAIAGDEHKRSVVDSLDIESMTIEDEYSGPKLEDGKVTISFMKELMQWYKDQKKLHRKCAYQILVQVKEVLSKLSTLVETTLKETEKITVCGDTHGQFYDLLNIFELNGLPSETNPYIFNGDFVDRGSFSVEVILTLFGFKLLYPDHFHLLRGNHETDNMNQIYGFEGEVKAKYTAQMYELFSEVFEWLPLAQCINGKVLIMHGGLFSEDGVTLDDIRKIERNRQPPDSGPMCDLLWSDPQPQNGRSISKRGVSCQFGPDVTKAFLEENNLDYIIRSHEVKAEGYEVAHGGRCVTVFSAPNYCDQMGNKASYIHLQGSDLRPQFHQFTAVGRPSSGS

[4] = NIH3T3 cell viability loss – ATP luminescence, mouse fibroblasts, counter-screen, dose response (AID 2010); assay type: functional, cell-based;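 note: cells exposed to compound for about 90 hours before reading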

Serine/threonine-protein phosphatase PP1-alpha catalytic subunit, sequence (P62136 whole entry): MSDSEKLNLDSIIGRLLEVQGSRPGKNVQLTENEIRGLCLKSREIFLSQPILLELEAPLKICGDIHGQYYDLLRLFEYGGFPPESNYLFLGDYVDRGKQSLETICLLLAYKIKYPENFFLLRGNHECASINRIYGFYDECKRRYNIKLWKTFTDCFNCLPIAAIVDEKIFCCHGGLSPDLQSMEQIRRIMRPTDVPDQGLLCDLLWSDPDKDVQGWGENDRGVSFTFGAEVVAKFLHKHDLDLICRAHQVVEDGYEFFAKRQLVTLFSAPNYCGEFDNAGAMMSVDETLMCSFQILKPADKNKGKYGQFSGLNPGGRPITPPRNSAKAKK

Structure (SMILES): COc1cnc(-c2ccccn2)nc1Sc1ccccc1
- IC50 [1]: 7.03 µM (active)
- EC50 [2]: 2.47 µM (active)
- IC50 [3]: > 67 µM (not active)
- EC50 [4]: > 60 µM (not active)

Source: ChEMBL document CHEMBL1201862, “PubChem BioAssay data set” (2004)
